Literature values, collected in patent US9980959B2, “Method and composition for treating rhinitis” (Biolipox AB, priority 2004, dated 2018).

Legend:
[1] = mist administered to the lung with a nebulizer
[2] = nasal spray

Question: With `O=C(O)COCCN1CCN(C(c2ccccc2)c2ccc(Cl)cc2)CC1` (stereo not shown) [cetirizine, [2-{4-[(4-chlorophenyl)-phenylmethyl]-1-piperazinyl}ethoxy]acetic acid] as the molecule, how does the “Protective effect in exercise-induced asthma” value [1] read?
Answer: good protective effect

Question: And the “Symptoms and nasal peak flow after an allergen challenge” value [2]?
Answer: reduce symptoms and increase nasal peak flow

Question: And the “Effect on symptoms in perennial allergic rhinitis” value (nasal spray 0.625, 1.25, 2.5 mg/mL three times a day for two weeks)?
Answer: Some effect

Question: What about the “Incidence of side effects (nasal events)” value (nasal spray versus placebo) of the same molecule?
Answer: no difference in incidence between the placebo and the cetirizine-treated groups
